Measured values reported in ChEMBL document CHEMBL1147442, “Epimerisation of lutein to 3'-epilutein in processed foods” (2004).

What was measured:
Type in all cases: functional
Prunus domestica [1] = experiment: Ratio in bottled plum was determined
Capsicum [2] = experiment: Ratio in pickled paprika was determined
Rubus [3] = experiment: Ratio in botteled blackberries was determined
Rumex acetosa [4] = experiment: Ratio in boiled sorrel was determined
Rumex acetosa [5] = experiment: Ratio in stewed sorrel was determined
Capsicum [6] = experiment: Ratio in baked paprika was determined
Rumex acetosa [7] = experiment: Ratio in microwaved sorrel was determined
Anethum graveolens = experiment: Ratio in pickled dill was determined
Rumex acetosa [8] = experiment: Ratio in steamed sorrel was determined
Rumex acetosa [9] = experiment: Ratio in raw sorrel was determined
Capsicum [10] = experiment: Ratio in raw paprika was determined
Rubus [11] = experiment: Ratio in raw blackberries was determined
Prunus domestica [12] = experiment: Ratio in raw plum was determined

SMILES	Ratio (Prunus domestica [1])	Ratio (Capsicum [2])	Ratio (Rubus [3])	Ratio (Rumex acetosa [4])	Ratio (Rumex acetosa [5])	Ratio (Capsicum [6])	Ratio (Rumex acetosa [7])	Ratio (Anethum graveolens)	Ratio (Rumex acetosa [8])	Ratio (Rumex acetosa [9])	Ratio (Capsicum [10])	Ratio (Rubus [11])	Ratio (Prunus domestica [12])
C=C1C=CCC(C)(C)[C@H]1/C=C/C(C)=C/C=C/C(C)=C/C=C/C=C(C)/C=C/C=C(C)/C=C/C1=C(C)C[C@@H](O)CC1(C)C	4.7%	2.2%	7.9%	6.5%	8%	5.1%	5%	3%	11.3%	–	–	–	–
CC1=C[C@@H](O)CC(C)(C)[C@H]1/C=C/C(C)=C/C=C/C(C)=C/C=C/C=C(C)/C=C/C=C(C)/C=C/C1=C(C)C[C@@H](O)CC1(C)C	7%	12.5%	17.4%	9%	8.8%	3.8%	6.4%	13.8%	9.2%	–	–	–	–
CC1=C[C@H](O)CC(C)(C)[C@H]1/C=C/C(C)=C/C=C/C(C)=C/C=C/C=C(C)/C=C/C=C(C)/C=C/C1=C(C)C[C@@H](O)CC1(C)C [LUTEIN]	29.3%	49.2%	37.4%	28.6%	16.4%	47.5%	24%	28.7%	12.7%	36%	53.5%	58.6%	34.2%
